# Marks after values point to notes of the source that are not given here. Square brackets hold non-standard residues; d marks the D form. Peptide text beside a SMILES is read from it. * marks the point of attachment. Phe(4-amidino) = N=C(N)c1ccc(C[C@H](N)C(=O)O)cc1; Phe(4-Cl) = N[C@@H](Cc1ccc(Cl)cc1)C(=O)O; hArg = N=C(N)NCCCC[C@H](N)C(=O)O; Nle = CCCC[C@H](N)C(=O)O; Abu = CC[C@H](N)C(=O)O; PhAc = O=C(Cc1ccccc1)*
# Key:
# [1] = test system: mRNA for IGF-II; test: DMS-153 human SCLC xenografts: expression of mRNA for IGF-II; type: in vivo, nude mice; conditions: 10 μg/day s.c., 6 weeks, control group 100±1.5%
# Description: (§1) Male nude mice were implanted s.c. with 3 mm^3 pieces of DMS-153 human SCLC tissue. When tumors reached a volume of approx. 100 mm^3 the mice were divided into 3 experimental groups of 68 animals each and received the following treatment for 6 weeks group 1 (control), vehicle solution; group 2, Peptide 67 (10 μg/day s.c.); group 3, Peptide 31 (10 μg/day s.c.). Tumor volumes were recorded twice a week. At the end of treatment, mice were anesthetized with isoflurane, killed by decapitation, trunk blood was collected for measurement of serum IGF-I, and tumors were excised and weighed. Data are presented as means±S.E. Data were evaluated by one way ANOVA and the Student-Newman-Keuls test.
# [2] = test system: HT-29 human colon cancer xenografts; test: HT-29 human colon cancer xenografts in nude mice: tumor growth; type: in vivo; conditions: 10 μg/day s.c., 62 days
# Description: HT-29 human colon cancers were transplanted sc. into male nude mice. 19 days after transplantation, the mice were divided into two groups of 10 animals each. and the treatment was started. Mice in the treatment group received single daily injections of Peptide 67 sc. at a dose of 10 μg/day for 62 days, while the control group was injected with the vehicle solvent. Tumors were measured regularly, and tumor volume was calculated. The mice were sacrificed at the end of experiment and tumor weights were measured.
# [3] = test system: PC-3 human prostate cancer xenografts; test: PC-3 xenografts in nude mice, Experiment 1: tumor growth; type: in vivo
# How it was run: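 Male nude mice carried s.c. PC-3 hormone-independent prostate tumour fragments on both flanks. Once tumours reached about 50 mm^3, groups of 7–8 mice received vehicle or peptide at 10 μg/day s.c. once daily for 28 days. Tumour volume was measured twice weekly, with tumour weight and serum IGF-I (RIA) taken at day 29; data are means ±S.E., two-tailed t-test.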
# [4] = test system: GH-RH receptor isoforms on membrane fractions of human PC-3 prostate tumors; type: binding; conditions: general statement
# How it was run: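 Competitive displacement of [^125I]JV-1-42 from crude membranes of human PC-3 prostate tumours grown as nude-mouse xenografts, with unlabelled peptides at 10^−12 to 10^−6 M. Bound radioactivity in the centrifuged pellet gamma-counted; Ki from Munson–Rodbard analysis. Relative affinity = Ki of reference peptide (JV-1-36 or JV-1-38) / Ki of test antagonist.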
# [5] = test system: DMS-153 human SCLC xenografts; test: DMS-153 human SCLC xenografts in nude mice: tumor growth; type: in vivo
# Description: as §1
# [6] = 10 μg/day s.c., 28 days, vs control
# [7] = 10 μg/day s.c., 6 weeks, vs control
structure (smiles),measurement,setting,value
"CCCC[C@H](NC(=O)[C@@H](NC(=O)[C@H](CC(=O)O)NC(=O)[C@H](CCC(N)=O)NC(=O)[C@H](CC(C)C)NC(=O)[C@H](CC(C)C)NC(=O)[C@H](CCCCN)NC(=O)[C@H](CCCNC(=N)N)NC(=O)[C@H](C)NC(=O)[C@H](CO)NC(=O)[C@H](CC(C)C)NC(=O)[C@H](CCC(N)=O)NC(=O)[C@H](CC)NC(=O)[C@H](CC(C)C)NC(=O)[C@@H](NC(=O)[C@H](CCCCN)NC(=O)[C@H](CCCNC(=N)N)NC(=O)[C@H](Cc1ccc(OC)cc1)NC(=O)[C@H](Cc1ccc(C(=N)N)cc1)NC(=O)[C@H](CC(N)=O)NC(=O)[C@@H](NC(=O)[C@H](Cc1ccc(Cl)cc1)NC(=O)[C@@H](NC(=O)[C@H](C)NC(=O)[C@H](CC(=O)O)NC(=O)[C@@H](CCCNC(=N)N)NC(=O)[C@H](Cc1ccc(O)cc1)NC(=O)Cc1ccccc1)[C@@H](C)CC)[C@@H](C)O)C(C)C)[C@@H](C)CC)C(=O)N[C@H](CCCNC(=N)N)C(=O)N[C@@H](CCCCNC(=N)N)C(N)=O [Peptide 67, [PhAc-Tyr^1, D-Arg^2, Phe(pCl)^6, Amp^9, Tyr(Me)^10, Abu^15, Nle^27, D-Arg^28, Har^29]hGH-RH(1-29)NH2] (PhAc-Y[dR]DAI[Phe(4-Cl)]TN[Phe(4-amidino)]Y(Me)RKVL[Abu]QLSARKLLQDI[Nle][dR][hArg]-NH2)",level of expression of mRNA for IGF-II,[1],78.0±44.3%
same,Final tumor volume (mm^3),[2],1218 ± 320* mm^3
same,Tumor weight,[2],1434 ± 405 mg
same,inhibition in the volumes of HT-29 tumors,[2]; vs control group,56.3%
same,inhibition in the weights of HT-29 tumors,[2]; vs control group,53.9%
same,Tumor volume (mm^3) Final,"[3]; 10 μg/day s.c., 28 days",200 ± 39.5* mm^3
same,Tumor volume doubling time,"[3]; 10 μg/day s.c., 28 days",17.0 ± 3.51 days
same,Tumor weight,"[3]; 10 μg/day s.c., 28 days",150 ± 22.1 mg
same,Tumor volume Final (% inhibition),[3]; [6],(60%)
same,Tumor weight (% inhibition),[3]; [6],(60%)
same,inhibitory effect on the growth of PC-3 tumors (in words),"[3]; 10 μg/day s.c., compared with JV-1-38",stronger inhibitory effect on the growth of PC-3 tumors than the reference peptide JV-1-38
same,Tumor volume (mm^3) Initial,[3]; at start of treatment,46.8 ± 8.11 mm^3
same,binding affinities to the tumoral receptors for GH-RH (in words),[4],extremely high binding affinities
same,Tumor volume (mm^3) Final,"[5]; 10 μg/day s.c., 6 weeks",2650 ± 30* mm^3
same,Tumor weight,"[5]; 10 μg/day s.c., 6 weeks",1.60 ± 0.19 g
same,Tumor volume Final (% inhibition),[5]; [7],(28%)
same,Tumor weight (% inhibition),[5]; [7],(31%)
same,Tumor volume (mm^3) Initial,[5]; at start of treatment,132 ± 24 mm^3

# — US7452865B2, “Antagonistic analogs of GH RH (2003)” (The Administrare's of the Tulane Educational Fund, priority 2004, dated 2008)
